# Laboratory results: US11180530B2, “Salt of phenylpropionamide derivative and preparation method therefor” (priority 2017, dated 2021)
# Counter-ions that a name gives are not always drawn. Like-named read-outs stand apart in the source and are kept apart here. Where a SMILES comes first, the peptide text is derived from it. [ ]: non-standard residue; d: D form. The star is where a group is joined. Gly(N-(2R-Ph-propyl)) = C[C@@H](CNCC(=O)O)c1ccccc1; Piperidin1yl(4-NH2,4-COOH) = NC1(C(=O)O)CCN(*)CC1
# How the values were obtained:
# [1] = type: physicochemical
# Procedure: Samples of the compound represented by formula (I) and acetate, hydrochloride, citrate and phosphate of the compound represented by formula (I) were respectively placed open and evenly spread, so that the stability of the samples were investigated under the conditions of room temperature, heating (40° C., 60° C.), illumination (4500Lux) and high humidity (RH75% and RH90%). The sampling period is 20 days.
# [2] = type: physicochemical; remark: listed apart in the source
# Procedure: Samples of acetate, hydrochloride, citrate and phosphate of the compound represented by formula (I) were subjected to a long-term accelerated stability investigation for 6 months under dark and sealed conditions (the inner package is a medicinal low-density polyethylene composite film and the outer package is aluminum foil), humidity (60% RH), temperature (4° C., 25° C.) and with/without nitrogen protection.
# [3] = 25° C., 60% RH, nitrogen protection, 1 month
# [4] = 25° C., 60% RH, nitrogen protection, 3 months
# [5] = 25° C., 60% RH, nitrogen protection, 6 months
# [6] = 25° C., 60% RH, nitrogen protection, initial
smiles,measurement,setting,value
"CC(C)C[C@@H](NC(=O)[C@@H](Cc1ccccc1)NC(=O)CNC[C@H](C)c1ccccc1)C(=O)N[C@H](CCCCN)C(=O)N1CCC(N)(C(=O)O)CC1 [Acetate (1:1)] (H-[Gly(N-(2R-Ph-propyl))][dF][dL][dK]-{Piperidin1yl(4-NH2,4-COOH)})",Stability (conclusion in words),"[1]; illumination, 40° C., 60° C.",degraded varying degrees
same,Long-term stability (conclusion in words),"[2]; 6 months, 4° C., 25° C., 60% RH, with/without nitrogen protection, amorphous samples",stable
"CC(C)C[C@@H](NC(=O)[C@@H](Cc1ccccc1)NC(=O)CNC[C@H](C)c1ccccc1)C(=O)N[C@H](CCCCN)C(=O)N1CCC(N)(C(=O)O)CC1 [Acetate (1:2)] (H-[Gly(N-(2R-Ph-propyl))][dF][dL][dK]-{Piperidin1yl(4-NH2,4-COOH)})",Stability (conclusion in words),[1]; high temperature,poor stability
same,acetate (radical) content by ion chromatography,"[1]; high temperature, after the 20-day experiment",greatly reduced
"CC(C)C[C@@H](NC(=O)[C@@H](Cc1ccccc1)NC(=O)CNC[C@H](C)c1ccccc1)C(=O)N[C@H](CCCCN)C(=O)N1CCC(N)(C(=O)O)CC1 [Citrate (1:2)] (H-[Gly(N-(2R-Ph-propyl))][dF][dL][dK]-{Piperidin1yl(4-NH2,4-COOH)})",Stability (conclusion in words),[1]; high temperature of 60° C.,degraded greatly
"CC(C)C[C@@H](NC(=O)[C@@H](Cc1ccccc1)NC(=O)CNC[C@H](C)c1ccccc1)C(=O)N[C@H](CCCCN)C(=O)N1CCC(N)(C(=O)O)CC1 [Embodiment 2, 4-amino-1-((2R,5R,8R,14R)-2-(4-aminobutyl)-8-benzyl-5-isobutyl-4,7,10-trioxo-14-phenyl-3,6,9,12-tetraazapentadecan-1-acyl)piperidine-4-carboxylic acid] (H-[Gly(N-(2R-Ph-propyl))][dF][dL][dK]-{Piperidin1yl(4-NH2,4-COOH)})",Purity %,"[1]; 25° C., 5 days",97.64%
same,Purity %,"[1]; 25° C., 10 days",97.64%
same,Purity %,"[1]; 25° C., 20 days",97.63%
same,Purity %,"[1]; 40° C., 5 days",96.23%
same,Purity %,"[1]; 4500 Lux, 0 days (initial)",97.65%
same,Purity %,"[1]; 4500 Lux, 5 days",96.99%
same,Purity %,"[1]; 4500 Lux, 10 days",96.68%
same,Purity %,"[1]; 4500 Lux, 20 days",96.72%
"CC(C)C[C@@H](NC(=O)[C@@H](Cc1ccccc1)NC(=O)CNC[C@H](C)c1ccccc1)C(=O)N[C@H](CCCCN)C(=O)N1CCC(N)(C(=O)O)CC1 [Embodiment 3, 4-amino-1-((2R,5R,8R,14R)-2-(4-aminobutyl)-8-benzyl-5-isobutyl-4,7,10-trioxo-14-phenyl-3,6,9,12-tetraazapentadecan-1-acyl)piperidine-4-carboxylic acid] (H-[Gly(N-(2R-Ph-propyl))][dF][dL][dK]-{Piperidin1yl(4-NH2,4-COOH)})",Purity %,"[2]; 4° C., 1 month",99.59%
same,Purity %,"[2]; 4° C., 3 months",99.58%
same,Purity %,"[2]; 4° C., 6 months",99.60%
same,Purity %,"[2]; 4° C., initial",99.59%
same,Aspect,[2]; [3],White
same,Purity %,[2]; [3],99.58%
same,Aspect,[2]; [4],White
same,Purity %,[2]; [4],99.51%
same,Aspect,[2]; [5],White
same,Purity %,[2]; [5],99.54%
same,Aspect,[2]; [6],White
same,Purity %,[2]; [6],99.59%
same,Aspect,"[2]; 25° C., 60% Rh, 1 month",White
same,Purity %,"[2]; 25° C., 60% Rh, 1 month",99.62%
same,Aspect,"[2]; 25° C., 60% Rh, 3 months",White
same,Purity %,"[2]; 25° C., 60% Rh, 3 months",99.61%
same,Aspect,"[2]; 25° C., 60% Rh, 6 months",White
same,Purity %,"[2]; 25° C., 60% Rh, 6 months",99.57%
same,Aspect,"[2]; 25° C., 60% Rh, initial",White
same,Purity %,"[2]; 25° C., 60% Rh, initial",99.59%
"CC(C)C[C@@H](NC(=O)[C@@H](Cc1ccccc1)NC(=O)CNC[C@H](C)c1ccccc1)C(=O)N[C@H](CCCCN)C(=O)N1CCC(N)(C(=O)O)CC1 [Embodiment 4, 4-amino-1-((2R,5R,8R,14R)-2-(4-aminobutyl)-8-benzyl-5-isobutyl-4,7,10-trioxo-14-phenyl-3,6,9,12-tetraazapentadecan-1-acyl)piperidine-4-carboxylic acid] (H-[Gly(N-(2R-Ph-propyl))][dF][dL][dK]-{Piperidin1yl(4-NH2,4-COOH)})",Purity %,"[1]; 25° C., 5 days",97.56%
same,Purity %,"[1]; 25° C., 10 days",97.44%
same,Purity %,"[1]; 25° C., 20 days",97.28%
same,Purity %,"[1]; 40° C., 5 days",86.31%
same,Purity %,"[1]; 4500 Lux, 0 days (initial)",97.70%
same,Purity %,"[1]; 4500 Lux, 5 days",95.83%
same,Purity %,"[1]; 4500 Lux, 10 days",94.91%
same,Purity %,"[1]; 4500 Lux, 20 days",92.17%
"CC(C)C[C@@H](NC(=O)[C@@H](Cc1ccccc1)NC(=O)CNC[C@H](C)c1ccccc1)C(=O)N[C@H](CCCCN)C(=O)N1CCC(N)(C(=O)O)CC1 [Embodiment 6, 4-amino-1-((2R,5R,8R,14R)-2-(4-aminobutyl)-8-benzyl-5-isobutyl-4,7,10-trioxo-14-phenyl-3,6,9,12-tetraazapentadecan-1-acyl)piperidine-4-carboxylic acid] (H-[Gly(N-(2R-Ph-propyl))][dF][dL][dK]-{Piperidin1yl(4-NH2,4-COOH)})",Purity %,"[1]; 25° C., 5 days",99.27%
same,Purity %,"[1]; 25° C., 10 days",99.27%
same,Purity %,"[1]; 25° C., 20 days",99.30%
same,Purity %,"[1]; 40° C., 5 days",99.03%
same,Purity %,"[1]; 4500 Lux, 0 days (initial)",99.32%
same,Purity %,"[1]; 4500 Lux, 5 days",97.13%
same,Purity %,"[1]; 4500 Lux, 10 days",95.32%
same,Purity %,"[1]; 4500 Lux, 20 days",92.39%
"CC(C)C[C@@H](NC(=O)[C@@H](Cc1ccccc1)NC(=O)CNC[C@H](C)c1ccccc1)C(=O)N[C@H](CCCCN)C(=O)N1CCC(N)(C(=O)O)CC1 [Embodiment 11, 4-amino-1-((2R,5R,8R,14R)-2-(4-aminobutyl)-8-benzyl-5-isobutyl-4,7,10-trioxo-14-phenyl-3,6,9,12-tetraazapentadecan-1-acyl)piperidine-4-carboxylic acid] (H-[Gly(N-(2R-Ph-propyl))][dF][dL][dK]-{Piperidin1yl(4-NH2,4-COOH)})",Purity %,"[2]; 4° C., 1 month",99.49%
same,Purity %,"[2]; 4° C., 3 months",99.56%
same,Purity %,"[2]; 4° C., 6 months",99.57%
same,Purity %,"[2]; 4° C., initial",99.50%
same,Purity %,[2]; [3],99.50%
same,Purity %,[2]; [4],99.51%
same,Purity %,[2]; [5],99.51%
same,Purity %,[2]; [6],99.50%
same,Purity %,"[2]; 25° C., 60% Rh, 1 month",99.50%
same,Purity %,"[2]; 25° C., 60% Rh, 3 months",99.52%
same,Purity %,"[2]; 25° C., 60% Rh, 6 months",99.5%
same,Purity %,"[2]; 25° C., 60% Rh, initial",99.50%
"CC(C)C[C@@H](NC(=O)[C@@H](Cc1ccccc1)NC(=O)CNC[C@H](C)c1ccccc1)C(=O)N[C@H](CCCCN)C(=O)N1CCC(N)(C(=O)O)CC1 [Embodiment 12, 4-amino-1-((2R,5R,8R,14R)-2-(4-aminobutyl)-8-benzyl-5-isobutyl-4,7,10-trioxo-14-phenyl-3,6,9,12-tetraazapentadecan-1-acyl)piperidine-4-carboxylic acid] (H-[Gly(N-(2R-Ph-propyl))][dF][dL][dK]-{Piperidin1yl(4-NH2,4-COOH)})",Purity %,"[1]; 25° C., 5 days",96.93%
same,Purity %,"[1]; 25° C., 10 days",96.80%
same,Purity %,"[1]; 25° C., 20 days",96.97%
same,Purity %,"[1]; 4500 Lux, 0 days (initial)",97.04%
same,Purity %,"[1]; 4500 Lux, 5 days",96.65%
same,Purity %,"[1]; 4500 Lux, 10 days",96.63%
same,Purity %,"[1]; 4500 Lux, 20 days",96.77%
"CC(C)C[C@@H](NC(=O)[C@@H](Cc1ccccc1)NC(=O)CNC[C@H](C)c1ccccc1)C(=O)N[C@H](CCCCN)C(=O)N1CCC(N)(C(=O)O)CC1 [Embodiment 13, 4-amino-1-((2R,5R,8R,14R)-2-(4-aminobutyl)-8-benzyl-5-isobutyl-4,7,10-trioxo-14-phenyl-3,6,9,12-tetraazapentadecan-1-acyl)piperidine-4-carboxylic acid] (H-[Gly(N-(2R-Ph-propyl))][dF][dL][dK]-{Piperidin1yl(4-NH2,4-COOH)})",Purity %,"[1]; 4500 Lux, 0 days (initial)",97.39%
same,Purity %,"[1]; 4500 Lux, 5 days",97.29%
same,Purity %,"[1]; 4500 Lux, 10 days",97.28%
same,Purity %,"[1]; 4500 Lux, 20 days",97.28%
"CC(C)C[C@@H](NC(=O)[C@@H](Cc1ccccc1)NC(=O)CNC[C@H](C)c1ccccc1)C(=O)N[C@H](CCCCN)C(=O)N1CCC(N)(C(=O)O)CC1 [Embodiment 14, 4-amino-1-((2R,5R,8R,14R)-2-(4-aminobutyl)-8-benzyl-5-isobutyl-4,7,10-trioxo-14-phenyl-3,6,9,12-tetraazapentadecan-1-acyl)piperidine-4-carboxylic acid] (H-[Gly(N-(2R-Ph-propyl))][dF][dL][dK]-{Piperidin1yl(4-NH2,4-COOH)})",Purity %,"[1]; 4500 Lux, 0 days (initial)",99.19%
same,Purity %,"[1]; 4500 Lux, 5 days",99.15%
same,Purity %,"[1]; 4500 Lux, 10 days",99.12%
same,Purity %,"[1]; 4500 Lux, 20 days",99.12%
"CC(C)C[C@@H](NC(=O)[C@@H](Cc1ccccc1)NC(=O)CNC[C@H](C)c1ccccc1)C(=O)N[C@H](CCCCN)C(=O)N1CCC(N)(C(=O)O)CC1 [hydrochloride (1:2)] (H-[Gly(N-(2R-Ph-propyl))][dF][dL][dK]-{Piperidin1yl(4-NH2,4-COOH)})",Stability (conclusion in words),"[1]; illumination and high temperature, 20 days",slightly degraded
"CC(C)C[C@@H](NC(=O)[C@@H](Cc1ccccc1)NC(=O)CNC[C@H](C)c1ccccc1)C(=O)N[C@H](CCCCN)C(=O)N1CCC(N)(C(=O)O)CC1 [hydrochloride (1:3)] (H-[Gly(N-(2R-Ph-propyl))][dF][dL][dK]-{Piperidin1yl(4-NH2,4-COOH)})",Stability (conclusion in words),[1]; illumination condition,slightly degraded
same,Stability (conclusion in words),[1]; other conditions (than illumination),stable
